Experimental findings from patent US12497411B2, “Muscarinic acetylcholine receptor subtype 4 antagonists in the treatment of anemia” (COLD SPRING HARBOR LABORATORY, priority 2019, dated 2025) are described below.

Test [1] addresses T1, human recombinant CHRM3 receptor (Homo sapiens, UniProt P20309).
T1 construct: expressed in transfected cells; host or cells: CHO cells (membranes)
The test can be described thus: Radioligand binding assay, CHRM3. Particulars: [3H]4-DAMP (0.2 nM), CHO cell membranes, 60 minutes at room temperature; read-out: Ki M3. How it is done:
(§1) PD102807 and Compounds A-K at concentrations of 1×10^−9 M, 1×10^−8 M, 1×10^−7 M, 1×10^−6 M, and 1×10^−5 M were tested in standard binding assays with radioligands and cell membranes with receptors. Compound binding was calculated as a percent inhibition of the binding of a radioactively labeled ligand specific for each target, and the Ki values were determined. For CHRM1, the binding assay was performed using [^3H]pirenzepine (2 nM) as a radioligand and membranes of CHO cells with human recombinant CHRM1 receptor. The incubation time was 60 minutes at room temperature. For CHRM2, the binding assay was performed using [^3H]AF-DX 384 (2 nM) as a radioligand and membranes of CHO cells with human recombinant CHRM2 receptor. The incubation time was also 60 minutes at room temperature. For CHRM3, the binding assay was performed using [^3H]4-DAMP (0.2 nM) as a radioligand and membranes of CHO cells with human recombinant CHRM3 receptor. The incubation time was also 60 minutes at room temperature. For CHRM4, the binding assay was performed using [^3H]4-DAMP (0.2 nM) as a radioligand and membranes of CHO cells with human recombinant CHRM4 receptor. The incubation time was also 60 minutes at room temperature. For CHRM5, the binding assay was performed using [^3H]4-DAMP (0.3 nM) as a radioligand and membranes of CHO cells with human recombinant CHRM5 receptor. The incubation time was also 60 minutes at room temperature.

The target in test [2] is T2, human recombinant CHRM1 receptor (Homo sapiens, UniProt P11229).
T2 construct: expressed in transfected cells; host or cells: CHO cells (membranes)
T2 sequence (P11229 1-460): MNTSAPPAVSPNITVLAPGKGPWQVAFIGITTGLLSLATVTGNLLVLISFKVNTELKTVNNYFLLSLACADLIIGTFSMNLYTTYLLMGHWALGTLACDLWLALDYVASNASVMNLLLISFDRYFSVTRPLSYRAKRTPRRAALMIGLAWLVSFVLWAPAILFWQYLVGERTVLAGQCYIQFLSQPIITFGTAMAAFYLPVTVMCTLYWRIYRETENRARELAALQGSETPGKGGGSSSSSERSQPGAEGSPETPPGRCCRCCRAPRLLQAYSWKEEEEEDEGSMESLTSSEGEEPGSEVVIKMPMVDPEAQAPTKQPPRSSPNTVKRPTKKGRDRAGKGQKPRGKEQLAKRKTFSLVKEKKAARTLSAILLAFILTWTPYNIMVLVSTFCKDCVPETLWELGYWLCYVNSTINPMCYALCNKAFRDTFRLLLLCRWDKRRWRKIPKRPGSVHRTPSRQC
Nature of the test: Radioligand binding assay, CHRM1. As to conditions: [3H]pirenzepine (2 nM), CHO cell membranes, 60 minutes at room temperature; read-out: Ki M1. How it is done:
as §1

Test [3] addresses T3, human recombinant CHRM2 receptor (Homo sapiens, UniProt P08172).
T3 construct: expressed in transfected cells; host or cells: CHO cells (membranes)
T3 sequence (P08172 1-466): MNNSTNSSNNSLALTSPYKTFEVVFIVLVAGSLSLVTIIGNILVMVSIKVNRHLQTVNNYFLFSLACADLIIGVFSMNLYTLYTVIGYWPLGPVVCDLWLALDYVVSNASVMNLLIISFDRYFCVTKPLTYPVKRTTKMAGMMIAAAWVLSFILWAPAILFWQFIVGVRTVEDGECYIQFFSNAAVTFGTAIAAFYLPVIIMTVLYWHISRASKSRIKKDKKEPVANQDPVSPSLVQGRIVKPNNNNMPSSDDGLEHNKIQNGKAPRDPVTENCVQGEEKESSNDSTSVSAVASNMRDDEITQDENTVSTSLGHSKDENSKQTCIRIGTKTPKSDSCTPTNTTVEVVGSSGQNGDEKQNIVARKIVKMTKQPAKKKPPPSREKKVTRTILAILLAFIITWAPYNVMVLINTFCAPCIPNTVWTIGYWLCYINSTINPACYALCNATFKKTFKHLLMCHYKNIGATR
Nature of the test: Radioligand binding assay, CHRM2. Particulars: [3H]AF-DX 384 (2 nM), CHO cell membranes, 60 minutes at room temperature; read-out: Ki M2. The procedure:
as §1

The target of test [4] is T4, human recombinant CHRM5 receptor (Homo sapiens, UniProt P08912).
T4 construct: expressed in transfected cells; host or cells: CHO cells (membranes)
T4 sequence (P08912 1-532): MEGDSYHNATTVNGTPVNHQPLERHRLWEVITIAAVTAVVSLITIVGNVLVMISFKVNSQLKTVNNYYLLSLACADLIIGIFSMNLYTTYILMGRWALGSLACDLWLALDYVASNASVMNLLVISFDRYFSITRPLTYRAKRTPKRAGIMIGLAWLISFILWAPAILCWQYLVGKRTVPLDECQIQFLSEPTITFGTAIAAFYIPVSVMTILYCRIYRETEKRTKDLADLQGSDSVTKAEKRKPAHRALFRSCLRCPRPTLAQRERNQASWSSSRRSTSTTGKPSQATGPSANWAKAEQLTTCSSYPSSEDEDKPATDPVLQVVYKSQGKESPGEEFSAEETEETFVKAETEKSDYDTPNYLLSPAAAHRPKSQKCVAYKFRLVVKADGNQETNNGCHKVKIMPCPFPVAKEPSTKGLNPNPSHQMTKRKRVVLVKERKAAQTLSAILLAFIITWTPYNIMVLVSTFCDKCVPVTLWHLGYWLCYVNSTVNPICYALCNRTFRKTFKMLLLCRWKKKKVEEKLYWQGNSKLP
The test can be described thus: Radioligand binding assay, CHRM5. As to conditions: [3H]4-DAMP (0.3 nM), CHO cell membranes, 60 minutes at room temperature; read-out: Ki M5. The procedure:
as §1

The target of test [5] is T5, CHRM4 (Homo sapiens, UniProt P08173).
T5 sequence (P08173 1-479): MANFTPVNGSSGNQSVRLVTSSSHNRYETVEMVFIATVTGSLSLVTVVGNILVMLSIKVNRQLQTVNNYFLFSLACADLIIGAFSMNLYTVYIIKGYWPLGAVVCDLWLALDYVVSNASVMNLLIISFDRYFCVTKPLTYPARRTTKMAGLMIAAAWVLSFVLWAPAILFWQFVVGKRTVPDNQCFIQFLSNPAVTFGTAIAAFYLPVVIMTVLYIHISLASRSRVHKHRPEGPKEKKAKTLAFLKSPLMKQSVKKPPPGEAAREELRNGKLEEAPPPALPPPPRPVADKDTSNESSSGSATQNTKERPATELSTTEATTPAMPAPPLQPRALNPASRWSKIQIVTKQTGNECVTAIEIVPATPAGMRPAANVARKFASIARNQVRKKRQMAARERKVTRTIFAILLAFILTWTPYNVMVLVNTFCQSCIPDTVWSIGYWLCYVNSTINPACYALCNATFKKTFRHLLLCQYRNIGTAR
Nature of the test: Radioligand binding assay, CHRM4. More on the design: expressed in transfected cells; host or cells: CHO cells (membranes). As to conditions: [3H]4-DAMP (0.2 nM), CHO cell membranes, 60 minutes at room temperature; read-out: Ki M4. How it is done: as §1

For test [6], the system named is PHZ induced hemolytic anemia in C57bl/6 mice. Nature of the test: PHZ induced hemolytic anemia mouse model, CBC. It counts as in vivo. Particulars: 60 mg/kg phenylhydrazine. The procedure:
Animal experiments were conducted in the Cold Spring Harbor Laboratory Animal Shared Resource in accordance with Institutional Animal Care and Use Committee-approved procedures. 4-6 weeks old C57bl/6 mice, purchased from Jackson Laboratory and randomly distributed into compound and control treatment groups, were given through oral delivery of PCS1055 (50 mg/kg or 100 mg/kg) twice per day or PD102807 (50 mg/kg or 100 mg/kg) once per day everyday for 3 days. On day 3, mice were intraperitoneally injected with 60 mg/kg PHZ. Mice were then given through oral delivery of PD102807 (50 mg/kg or 100 mg/kg) once per day every day for 2 days. Peripheral blood samples were collected retro-orbitally on day 6 using heparinized capillary tubes in blood collection tubes with K2-EDTA. CBC was performed using Hemavet 950. […] C57bl/6 mice were injected with 60 mg/kg phenylhydrazine to induce hemolysis. Mice were delivered with either vehicle control or Compound A or B (30 mg/kg or 100 mg/kg). Peripheral blood samples were collected retro-orbitally using heparinized capillary tubes into blood collection tubes with K2-EDTA. Complete blood counting was performed using Hemavet 950. Hematocrit (HCT), red blood cell (RBC) and hemoglobin (Hb) values are shown. […] C57bl/6 mice were injected with 60 mg/kg phenylhydrazine to induce hemolysis. Mice were delivered with subcutaneous injection with either vehicle control or Compound B (1.5 mg/kg, 3 mg/kg, or 5 mg/kg) or I (0.5 mg/kg, 0.7 mg/kg, or 1 mg/kg). Peripheral blood samples were collected retro-orbitally using heparinized capillary tubes into blood collection tubes with K2-EDTA. Complete blood counting was performed using Hemavet 950. Hematocrit (HCT), red blood cell (RBC) and hemoglobin (Hb) values are shown.

T1 sequence (P20309 whole entry): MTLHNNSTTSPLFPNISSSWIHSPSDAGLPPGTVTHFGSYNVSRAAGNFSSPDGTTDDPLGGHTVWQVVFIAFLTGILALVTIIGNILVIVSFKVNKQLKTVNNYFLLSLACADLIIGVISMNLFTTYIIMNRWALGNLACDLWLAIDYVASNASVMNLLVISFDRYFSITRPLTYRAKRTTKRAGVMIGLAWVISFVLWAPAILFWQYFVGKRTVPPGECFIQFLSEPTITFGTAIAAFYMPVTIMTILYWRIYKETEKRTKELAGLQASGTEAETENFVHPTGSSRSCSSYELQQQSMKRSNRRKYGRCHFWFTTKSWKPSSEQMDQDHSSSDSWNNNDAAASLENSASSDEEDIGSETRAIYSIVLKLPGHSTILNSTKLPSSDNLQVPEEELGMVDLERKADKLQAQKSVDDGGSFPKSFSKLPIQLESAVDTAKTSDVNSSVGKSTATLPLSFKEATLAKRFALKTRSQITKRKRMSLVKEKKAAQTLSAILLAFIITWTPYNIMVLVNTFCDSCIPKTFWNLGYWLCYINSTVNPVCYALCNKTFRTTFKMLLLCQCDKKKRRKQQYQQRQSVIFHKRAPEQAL

Consider `CCOC(=O)c1c(C)n(C)c2cc(C[N+]3(C)CCc4cc(OC)ccc4C3)c(OC)cc12` (centres unmarked) [Compound K], for which the Ki in test [1] came to 0.4 µM; in test [2], 0.054 µM; in test [3], 0.1 µM; in test [4], 0.98 µM; in test [5], 0.054 µM.

In the case of `CCOC(=O)c1c(C)n(C)c2ccc3c(c12)C[N+]1(C)CCc2cc(OC)ccc2C1O3` (single isomer, unassigned) [Compound I, 1-(ethoxycarbonyl)-9-methoxy-2,3,13-trimethyl-3,6a,11,12,13,14-hexahydroindolo[4′,5′:5,6][1,3]oxazino[2,3-a]isoquinolin-13-ium Iodide], the Ki was found to be 8.5 µM in test [2], 1.7 µM in test [3], 10 µM in test [4] and 0.74 µM in test [5]. For the same compound, the “treatment of anemia in vivo (HCT, RBC, Hb)” value in test [6] (subcutaneous injection, B 1.5, 3 or 5 mg/kg, I 0.5, 0.7 or 1 mg/kg) is given as “treat anemia in vivo”.

Turning to `CCOC(=O)c1c(C)[nH]c2ccc3c(c12)C[N+]1(C)CCc2cc(OC)ccc2C1O3` (single isomer, unassigned) [Compound A, 1-(ethoxycarbonyl)-9-methoxy-2,13-dimethyl-3,6a,11,12,13,14-hexahydroindolo[4′,5′:5,6][1,3]oxazino[2,3-a]isoquinolin-13-ium Iodide], the values for the Ki in test [3], in test [4] and in test [5] were 2.2 µM, 3.5 µM and 1.8 µM, respectively. Moreover, in test [6] (30 mg/kg or 100 mg/kg, C57bl/6 mice), the “treatment of anemia in vivo (HCT, RBC, Hb)” value is recorded as “treat anemia in vivo”.
